From patent US9113629B2, “4-amino-6-(4-substituted-phenyl)-picolinates and 6-amino-2-(4-substituted-phenyl)-pyrimidine-4-carboxylates and their use as herbicides” (DOW AGROSCIENCES LLC, priority 2013, dated 2015)
Where two headings read alike, the source gives them in different places.

Legend:
[1] = test system: Key Grass and Sedge Weeds as well as Grass Crops; assay: Post-emergent Test II herbicidal activity (Table 6); assay type: in vivo; conditions: post-emergence, 336 h; for pest or weed control at 70 g/ha: application rate 70 g ai/ha; for pest or weed control at 140 g/ha: application rate 140 g ai/ha
How it was run: (§1)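 Post-emergence foliar spray, 187 L/ha, track sprayer at 43 cm above canopy. Carrier: acetone/water/IPA/DMSO/Atplus 411F/Triton X-155. Plants at 1st–2nd true leaf; subirrigated afterwards; % injury scored visually at 14 d.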

[2] = test system: Key Broadleaf Weed and Crop Species; assay: Post-emergent Test II herbicidal activity (Table 5); assay type: in vivo; conditions: post-emergence, 336 h, post-emergent, 14 days after application; for pest or weed control at 70 g/ha: 70 g ai/ha; for pest or weed control at 140 g/ha: 140 g ai/ha
How it was run: as §1

[3] = Triticum aestivum, TRZSS (wheat), read-out: Visual Growth Reduction (%) 14 Days After Application, TRZSS
[4] = CYPES: yellow nutsedge (Cyperus esculentus), read-out: Visual Growth Reduction (%) 14 Days After Application, CYPES
[5] = DIGSA: crabgrass (Digitaria sanguinalis), read-out: Visual Growth Reduction (%) 14 Days After Application, DIGSA
[6] = ECHCG: barnyardgrass (Echinochloa crus-galli), read-out: Visual Growth Reduction (%) 14 Days After Application, ECHCG
[7] = ORYSA: rice (Oryza sativa), read-out: Visual Growth Reduction (%) 14 Days After Application, ORYSA
[8] = SETFA: giant foxtail (Setaria faberi), read-out: Visual Growth Reduction (%) 14 Days After Application, SETFA
[9] = SORVU: grain sorghum (Sorghum vulgare), read-out: Visual Growth Reduction (%) 14 Days After Application, SORVU
[10] = ZEAMX: maize, corn (Zea mays), read-out: Visual Growth Reduction (%) 14 Days After Application, ZEAMX
[11] = ABUTH: velvetleaf (Abutilon theophrasti), read-out: Visual Growth Reduction (%) 14 Days After Application ABUTH
[12] = AMARE: redroot pigweed (Amaranthus retroflexus), read-out: Visual Growth Reduction (%) 14 Days After Application AMARE
[13] = BRSNN: oilseed-rape, canola (Brassica napus), read-out: Visual Growth Reduction (%) 14 Days After Application BRSNN
[14] = CHEAL: lambsquarters (Chenopodium album), read-out: Visual Growth Reduction (%) 14 Days After Application CHEAL
[15] = EPHHL: wild poinsettia (Euphorbia heterophylla), read-out: Visual Growth Reduction (%) 14 Days After Application EPHHL
[16] = HELAN: sunflower (Helianthus annuus), read-out: Visual Growth Reduction (%) 14 Days After Application HELAN
[17] = VIOTR: wild pansy (Viola tricolor), read-out: Visual Growth Reduction (%) 14 Days After Application VIOTR

## COC(=O)c1nc(-c2ccc(OC(F)F)cc2)c(C)c(N)c1Cl [Compound 111, Methyl 4-amino-3-chloro-6-(4-(difluoromethoxy)phenyl)-5-methylpicolinate]
[1]; [3]
  pest or weed control at 70 g/ha: 0 to 29%
  pest or weed control at 140 g/ha: 0 to 29%
[1]; [4]
  pest or weed control at 70 g/ha: 0 to 29%
  pest or weed control at 140 g/ha: 0 to 29%
[1]; [5]
  pest or weed control at 70 g/ha: 0 to 29%
  pest or weed control at 140 g/ha: 0 to 29%
[1]; [6]
  pest or weed control at 70 g/ha: 0 to 29%
  pest or weed control at 140 g/ha: 0 to 29%
[1]; [7]
  pest or weed control at 70 g/ha: 0 to 29%
  pest or weed control at 140 g/ha: 0 to 29%
[1]; [8]
  pest or weed control at 70 g/ha: 0 to 29%
  pest or weed control at 140 g/ha: 0 to 29%
[1]; [9]
  pest or weed control at 70 g/ha: 0 to 29%
  pest or weed control at 140 g/ha: 0 to 29%
[1]; [10]
  pest or weed control at 70 g/ha: 0 to 29%
  pest or weed control at 140 g/ha: 0 to 29%
[2]; [11]
  pest or weed control at 70 g/ha: 30 to 44%
  pest or weed control at 140 g/ha: 60 to 74%
[2]; [12]
  pest or weed control at 70 g/ha: 0 to 29%
  pest or weed control at 140 g/ha: 0 to 29%
[2]; [13]
  pest or weed control at 70 g/ha: 0 to 29%
  pest or weed control at 140 g/ha: 0 to 29%
[2]; [14]
  pest or weed control at 70 g/ha: 30 to 44%
  pest or weed control at 140 g/ha: 60 to 74%
[2]; [15]
  pest or weed control at 70 g/ha: 0 to 29%
  pest or weed control at 140 g/ha: 0 to 29%
[2]; [16]
  pest or weed control at 70 g/ha: 75 to 84%
  pest or weed control at 140 g/ha: 85 to 94%
[2]; [17]
  pest or weed control at 70 g/ha: 0 to 29%
  pest or weed control at 140 g/ha: 0 to 29%
